Reference: US20240091202A1, “COMPOSITIONS FOR THE TREATMENT OF EBV ASSOCIATED DISEASES OR CONDITIONS” (Universität Basel, priority 2021, published 2024)

Experiments:
[1] = system: primary B cells infected with EBV B95-8; assay: EBV-driven B cell proliferation, CellTrace Violet flow cytometry assay; type: cell-based, human; conditions: different BMS-986205 concentrations added at 0 hpi; analyzed 8 days post infection; vs vehicle
Method: Proliferation was analyzed in the presence of vehicle or different BMS-986205 concentrations added on day 0 post EBV-infection of primary B cells (n=2). Uninfected and h.i. EBV infected cells served as internal controls. Proliferation was analyzed 8 days post infection by flow cytometry using a cell trace violet based assay.
Bulk B cells were stained with CellTraceTM Violet (Cell Proliferation Kit, ThermoFisher) then infected with EBV B95-8 as described above. Proliferation was assessed by determining the number of proliferated cells (cells that had proliferated at least once after infection) with IDO1 inhibitor/number of proliferated cells with vehicle control.

[2] = system: primary B cells infected with EBV B95-8; assay: EBV-driven B cell transformation efficiency assay (LCL outgrowth); type: cell-based, human; conditions: for restoration of EBV's capacity to latently infect/transform B cells in the presence of BMS-986205: 10 μM BMS-986205 plus 50 μM L-KYNU or 500 μM NaMN, added day 0; for rescue of the capacity of EBV to transform IDO1-blocked B cells: summary statement, added together with IDO1 inhibitor
Method: Transformation efficiency was analyzed 5 weeks post infection and plotted against the added multiplicity of infection (MOI).
Data are represented as median value of indicated individual data points (n=4 independent experiments) relative to Ctrl siRNA (set at one), and compared using two-tailed Student's t-test.
An IDO1 inhibitor as disclosed herein can inhibit B cell transformation. Preferably, an IDO1 inhibitor as disclosed herein can inhibit EBV-induced B cell transformation. Transformation can be analysed by methods known in the art, for example using a transformation efficiency assay. In this assay B cells are seeded into a cell culture plate and infected with increasing virus concentrations. An IDO1 inhibitor can be added immediately after infection. After an incubation period of 5 weeks, the number of wells positive for LCL outgrowth are counted. Alternatively, any other suitable assay can be used. Suitably, an IDO1 inhibitor as disclosed herein can inhibit B cell transformation at a concentration of about 200 μM or less, about 150 μM or less, about 100 μM or less, about 50 μM or less, about 20 μM or less, about 15 μM or less, about 10 μM or less, about 5 μM or less, or about 1 μM or less, preferably about 100 μM or less or about 10 μM or less in the assays described herein. An IDO1 inhibitor as disclosed herein can be any one of the IDO inhibitors as disclosed herein that can inhibit B cell transformation, preferably EBV-induced B cell transformation.
Bulk B cells were seeded at a final concentration of 1×10^6 cells/ml in LCM-10 medium in a 96-well round bottom plate and infected with increasing concentration of EBV B95-8 (MOI 1×10^3-1×10^−4) by spinoculation. […] 5 weeks post-infection the number of wells with morphologic changes of transformation was counted and plotted as percentage of wells positive for LCL outgrowth against virus concentration in MOI.

IDO1 = IDO1 inhibition in humanized mouse model of EBV infection: tryptophan and L-kynurenine levels; type: in vivo, humanized NSG mice; conditions: Epacadostat 200 mg/kg i.p.; d -7, day 2 and day 7 pi; vs vehicle (FIG. 10)
Method: Data are shown as box and whiskers (median, IQR and range) and compared by two-tailed Student's t-test.
(§1) A humanized mouse model of EBV infection was then used to directly interrogate the role of IDO1 in EBV-driven immune dysregulation and lymphomagenesis. Briefly, NSG mice (Jackson Laboratory, Bar Harbor, ME, USA) were injected with human hematopoietic progenitor cells shortly after birth, and reconstitution with human immune system components was confirmed at 3-4 months of age (data not shown). […]. Efficacy of Epacadostat-mediated IDO1 inhibition was verified by quantifying tryptophan and L-kynurenine plasma levels (FIG. 10). EBV viral loads were assessed in DNA preparations from whole blood at week 2, 3, 4, and 5 pi, and in the spleen at the day of sacrifice, using Taqman real-time PCR with modified primers (5′-[…]-3′ and 5′-[…]-3′) and a fluorogenic probe (5′-FAM […]-TAMRA-3′) to detect the conserved EBV BamHI-W fragment. Samples were analyzed in triplicates and run on a CFX384 Touch Real-time PCR Detection System (Bio-Rad). DNA from whole blood was extracted with the NucliSENS EasyMAG System (Biornerieux) and DNA from splenic tissues was isolated using the DNeasy Blood and Tissue kit (QIAGEN), according to the manufacturer's recommendations.

EBV = EBV viral loads in blood and spleen, humanized mouse model (Taqman real-time PCR); type: in vivo, humanized NSG mice
Method: […]. Data are shown as median values from the indicated individual measurements, compared using two-tailed Student's t-test.
(§2) Median values from the indicated individual measurements are shown, compared using two-tailed Student's t-test.
as §1

CD8+ T cells = assay: CD8+ T cell expansion, humanized mouse model of EBV infection; type: in vivo, humanized NSG mice; conditions: Epacadostat i.p.
Method: as §2
Data are shown as medians and two-tailed Student's t-test was used to compare groups.
as §1

EBV-positive tumors = assay: EBV-positive tumor burden, humanized mouse model of EBV infection; type: in vivo, humanized NSG mice; conditions: Epacadostat i.p. vs vehicle, n=10 each (FIG. 13A-13C); text concludes reduced lymphomagenesis
Method: […]. A Chi-Square test was used to compare groups.
(lower panels) are shown, stained with hematoxylin and eosin (HE) (left panels) and EBER FISH (right panels).
A Chi-Square test was used to compare groups. […].
as §1

[3] = 5 weeks post infection (FIG. 6A)

C[C@@H](C(=O)Nc1ccc(Cl)cc1)C1CCC(c2ccnc3ccc(F)cc23)CC1 (stereo partly shown) [BMS-986205]
EBV driven B cell proliferation [1]: inhibited in a dose-dependent manner
EBV driven B cell transformation ([2]; 10 μM BMS-986205 added at 0 hpi, analyzed 5 weeks post infection, vs vehicle): efficiently suppressed

NS(=O)(=O)NCCNc1nonc1C(=NO)Nc1ccc(F)c(Br)c1 [Epacadostat]
transformation of EBV-infected B cells ([2]; 100 μM Epacadostat added at 0 hpi, 5 weeks post infection (FIG. 6B)): efficiently suppressed
efficacy of IDO1 inhibition by tryptophan and L-kynurenine plasma levels (IDO1): verified
splenic viral loads (EBV; Epacadostat i.p., 5 weeks pi, vs vehicle-treated (FIG. 11B)): borderline reduced
blood EBV load (EBV; Epacadostat i.p., AUC of viral load 2-5 weeks pi, vs vehicle-treated (FIG. 11A)): efficiently reduced
effect on viral loads (EBV; treated throughout the experiment and also treated for only 2 weeks after infection (data not shown)): observed
Splenic CD8VCD4^+ T cell ratios (CD8+ T cells; day of sacrifice (FIG. 12C)): remained unchanged
expansion of peripheral blood CD8+ T cells (CD8+ T cells; week 0 to week 5 pi, vs vehicle (FIG. 12A and 12B)): prevented
effect on EBV-driven B cell tumorigenesis (macroscopic and microscopic tumor burden) (EBV-positive tumors): equally clear

Nc1ccccc1C(=O)C[C@H](N)C(=O)O [L-KYNU, L-Kynurenine]
restoration of EBV's capacity to latently infect/transform B cells in the presence of BMS-986205 [2, 3]: partially restored
rescue of the capacity of EBV to transform IDO1-blocked B cells [2]: partially and dose-dependently rescued

O=C(O)c1ccc[n+]([C@@H]2O[C@H](COP(=O)(O)O)[C@@H](O)[C@H]2O)c1 [NaMN]
restoration of EBV's capacity to latently infect/transform B cells in the presence of BMS-986205 [2, 3]: fully restored
transformation efficiency compared to vehicle ([2]; 10 μM BMS-986205 plus 500 μM NaMN, day 0, 5 weeks post infection (FIG. 6A)): slightly increased
rescue of transformation of B cells in the presence of Epacadostat ([2]; 100 μM Epacadostat plus 500 μM NaMN, day 0, 5 weeks post infection (FIG. 6B)): fully rescued
rescue of the capacity of EBV to transform IDO1-blocked B cells [2]: fully rescue
